Test results from EP3122315B1, “ACTIVE-INGREDIENT COMBINATIONS CONSISTING OF 4-HYDROXYACETOPHENONE AND ONE OR MORE GLYCERIN AND/OR OLIGOGLYCERIN ESTERS OF BRANCHED CHAINS AND/OR UNBRANCHED CHAINS OF ALKANE CARBOXYLIC ACIDS, AND COSMETIC OR DERMATOLOGICAL PREPARATIONS CONTAINING SAID ACTIVE-INGREDIENT COMBINATIONS” (Symrise AG, priority 2014, dated 2015).
Where two headings read alike, the source gives them in different places.

Assay: Solubility tests of 4-hydroxyacetophenone in cosmetic oil with or without glycerol ester additive
Details: for Löslichkeit "HAP" bei 35 °C / Löslichkeit "HAP" bei RT: solvent C12-15 Alkylbenzoate; for Löslichkeit "HAP" bei RT: room temperature (ca. 20 °C)
Method: Die Durchführung der Löslichkeitsversuche erfolgte bei 2 verschiedenen Temperaturen: Bei Raumtemperatur (ca. 20 °C) und bei 35 °C.
Das weiße, kristalline 4-Hydroxyacetophenon ("4-HAP") wurde in kleinen Portionen langsam (über mehrere Stunden) zum jeweiligen Lösungsmittel unter Rühren hinzugegeben, bis sich kein weiteres Material mehr lösen ließ. Hier war die Löslichkeitsgrenze erreicht. Nicht gelöstes Material war deutlich als milchiger Niederschlag oder einzelne Kristalle erkennbar. Das Additiv (der jeweilige Glycerinester) wurde ebenfalls in kleinen Portionen hinzugegeben.
Die Experimente bei 35°C wurden im Wasserbad durchgeführt. Die Temperatur wurde per Temperatursonde, welche mit dem Heizrührer verbunden war, konstant gehalten. Die Experimente wurden in verschraubten 15 ml Gläsern durchgeführt, um ein Verdampfen des Lösungsmittels zu verhindern. Die Löslichkeit wurde 12-24 Stunden nach der letzten Substanzzugabe gemessen, so dass sich das System equilibrieren konnte. […] Die Löslichkeitsversuche wurden in dem bekannten kosmetischen Öl "C12-15 Alkylbenzoate", erhältlich unter anderem unter dem Handelsnamen Tegesoft® TN B von der Firma Evonik, durchgeführt. Die Ergebnisse sind in Tabelle 1 wiedergegeben: Tabelle 1

Compound: Glycerylstearatcitrate [reference compound]
- Einfluss auf die Löslichkeit von 4-Hydroxyacetophenon: keinen Einfluss

Compound: CCCCCCCC(=O)OCC(O)CO (centres unmarked) [Glycerylcaprylat]
- Löslichkeit des Glycerylesters im verwendeten Lösungsmittel (kosmetischen öl): vollständig

Compound: CCCCCCCCCCCCCCCCCC(=O)OCC(O)CO (centres unmarked) [Glycerylstearate, reference compound]
- Einfluss auf die Löslichkeit von 4-Hydroxyacetophenon (known emulsifier used as additive, concentration not given): keinen Einfluss

Compound: CC(=O)c1ccc(O)cc1 [HAP, 4-Hydroxyacetophenon]
- Kristalle mit (Löslichkeit "HAP" bei 35 °C) (concentration at which undissolved crystals were seen, no glycerol ester, C12-15 Alkylbenzoate, 35 °C): 3%
- Kristalle bei (Löslichkeit "HAP" bei RT) (concentration at which undissolved crystals were seen, no glycerol ester, C12-15 Alkylbenzoate, room temperature): 2,25%
- Löslichkeit "HAP" bei 35 °C (no glycerol ester (Ohne), 35 °C water bath): 2,5%
- Löslichkeit "HAP" bei RT (no glycerol ester (Ohne), read 12-24 h after last addition): 2%
- Löslichkeit "HAP" bei RT (with 0,5 % Polyglyceryl-2-caprat): 2,25 % gelöst
- Löslichkeit "HAP" bei 35 °C (with 1 % Glycerylcaprylat, 35 °C): 3 % gelöst (Steigerung im Vergleich zu 2,5 % ohne Ester
- Löslichkeit "HAP" bei RT (with 1 % Glycerylcaprylat): 2,25 % gelöst
- Löslichkeit "HAP" bei 35 °C (with 1 % Polyglyceryl-2-caprat, 35 °C): 3 % gelöst (Steigerung im Vergleich zu 2,5 % ohne Ester)
- Löslichkeit "HAP" bei RT (with 1 % Polyglyceryl-2-caprat): < 2,25 % nicht vollständig gelöst

Compound: Polyglyceryl-2-caprat
- Löslichkeit des Glycerylesters im verwendeten Lösungsmittel (kosmetischen öl) (1 % of the ester in C12-15 Alkylbenzoate, 35°C): vollständig
- Löslichkeit des Glycerylesters im verwendeten Lösungsmittel (kosmetischen öl) (1 % of the ester in C12-15 Alkylbenzoate, RT): vollständig
